Measured values as given in article PMC10803289, “Transport and inhibition mechanism of the human SGLT2–MAP17 glucose transporter” (Nature Structural & Molecular Biology, 2023).
“And” between values parts separate entries of the source, which are not always exact repeats. Identical values can stand only once.

Tests used:
hSGLT2 S74A [1] = biological target: T1, hSGLT2 S74A (Homo sapiens, UniProt P31639, S74A); type: binding; conditions: S74A
T1 construct: expressed in transfected cells; host or cells: Expi293 cells, crude membrane fraction
T1 sequence (P31639 whole entry S74A, one chain of several): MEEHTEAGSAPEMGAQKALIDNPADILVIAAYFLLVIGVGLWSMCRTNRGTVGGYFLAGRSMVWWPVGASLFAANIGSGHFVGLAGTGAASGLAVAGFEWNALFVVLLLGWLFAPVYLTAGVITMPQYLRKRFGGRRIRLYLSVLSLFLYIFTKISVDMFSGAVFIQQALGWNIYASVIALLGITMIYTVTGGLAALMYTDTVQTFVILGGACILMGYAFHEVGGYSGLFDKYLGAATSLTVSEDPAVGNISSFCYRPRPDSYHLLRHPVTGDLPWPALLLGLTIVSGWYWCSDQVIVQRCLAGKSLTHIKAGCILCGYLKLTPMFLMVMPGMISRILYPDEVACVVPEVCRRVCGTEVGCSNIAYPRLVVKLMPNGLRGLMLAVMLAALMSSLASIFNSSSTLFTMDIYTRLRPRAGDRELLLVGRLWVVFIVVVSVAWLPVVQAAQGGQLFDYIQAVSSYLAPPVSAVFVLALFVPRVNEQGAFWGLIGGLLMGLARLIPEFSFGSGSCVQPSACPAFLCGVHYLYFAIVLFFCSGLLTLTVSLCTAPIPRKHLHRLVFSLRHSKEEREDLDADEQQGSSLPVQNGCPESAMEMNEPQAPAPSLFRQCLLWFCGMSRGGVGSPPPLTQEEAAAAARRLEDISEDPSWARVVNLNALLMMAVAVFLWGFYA
Source text: (§1) hSGLT2 complementary DNA and human MAP17 cDNA were synthesized and codon-optimized for expression in human cell lines. Both cDNAs were cloned into the pcDNA3.4 vector. The hSGLT2 sequence was fused with an N-terminal signal sequence from human trypsinogen 1, a His10 tag, and sfGFP, followed by a human rhinovirus 3C protease (HRV3C protease) recognition site. Point mutations were introduced into this construct using site-directed mutagenesis. These plasmids were utilized for all experimental procedures conducted in this study.
To examine the inhibition of binding to the crude membrane, mammalian Expi293 cells were co-transfected with the hMAP17 and hSGLT2 plasmids, as described. The cells were collected and disrupted by sonication in a hypotonic buffer (50 mM HEPES–NaOH (pH 7.5), 10 mM KCl and protease inhibitor cocktail) or Na^+-free hypotonic buffer (50 mM Tris–HCl (pH 7.5), 10 mM KCl and protease inhibitor cocktail). The cell debris were removed by centrifugation (2,000g, 5 min, 4 °C). The membrane fraction was collected by ultracentrifugation (112,000g, 30 min, 4 °C) and stored at −80 °C before use. […] The extract solution from the filter plate was diluted with water containing candesartan as an internal standard, and the SGLT2 inhibitor concentration was quantified via LC–MS/MS.
(§2) Nonspecific binding was measured using the crude membrane of nontransfected Expi293 cells. Specific binding was calculated by subtracting nonspecific binding from the binding of hSGLT2-expressing cells. Specific binding was normalized to hSGLT2 protein expression levels, measured via FSEC. The equilibrium dissociation constant (Kd) and maximum number of binding sites (Bmax) were calculated via nonlinear regression in GraphPad Prism 8.4.3. […]
(§3) The concentrations of the extract solution from the filter plate and of the cell lysate were quantified using a tandem mass spectrometry QTRAP6500 System (SCIEX) coupled with an ACQUITY UPLC system (Waters) using the internal standard method. […]

hSGLT2 F453A [2] = biological target: T2, hSGLT2 F453A (Homo sapiens, UniProt P31639, F453A); test: SGLT2 inhibitor-binding assay (AS-MS), crude membrane, F453A mutant; design: expressed in transfected cells; host or cells: Expi293 cells, crude membrane fraction; conditions: 30 nM canagliflozin, replicates
T2 sequence (P31639 1-672 F453A): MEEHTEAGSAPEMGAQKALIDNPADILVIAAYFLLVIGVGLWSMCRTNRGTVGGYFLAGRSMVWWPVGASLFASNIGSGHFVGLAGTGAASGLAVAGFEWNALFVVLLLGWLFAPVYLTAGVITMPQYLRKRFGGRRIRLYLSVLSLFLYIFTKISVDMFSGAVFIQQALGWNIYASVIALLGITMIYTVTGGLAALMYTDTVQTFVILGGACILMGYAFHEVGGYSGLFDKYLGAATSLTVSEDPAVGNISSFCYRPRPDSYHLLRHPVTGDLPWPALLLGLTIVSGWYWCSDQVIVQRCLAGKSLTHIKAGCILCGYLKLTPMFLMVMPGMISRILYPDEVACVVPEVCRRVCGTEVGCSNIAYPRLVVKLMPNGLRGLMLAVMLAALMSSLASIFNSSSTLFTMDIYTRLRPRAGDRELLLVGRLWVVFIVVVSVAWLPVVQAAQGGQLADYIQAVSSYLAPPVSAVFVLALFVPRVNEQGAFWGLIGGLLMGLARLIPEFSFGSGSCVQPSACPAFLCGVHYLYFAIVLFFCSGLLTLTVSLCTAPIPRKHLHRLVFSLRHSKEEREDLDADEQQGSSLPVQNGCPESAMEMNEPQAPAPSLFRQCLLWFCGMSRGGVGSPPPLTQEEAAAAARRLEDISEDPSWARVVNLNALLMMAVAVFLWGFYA
T2 sequence (Q13113 1-114 partner): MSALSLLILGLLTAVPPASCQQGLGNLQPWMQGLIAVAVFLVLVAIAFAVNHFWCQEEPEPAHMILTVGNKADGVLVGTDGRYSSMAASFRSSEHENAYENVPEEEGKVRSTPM
Source text: as §1
To examine the inhibition of binding to the crude membrane, mammalian Expi293 cells were co-transfected with the hMAP17 and hSGLT2 plasmids, as described. […] The extract solution from the filter plate was diluted with water containing candesartan as an internal standard, and the SGLT2 inhibitor concentration was quantified via LC–MS/MS.
as §2

hSGLT2 S74A [3] = biological target: T1, hSGLT2 S74A; test: cell-based
Source text: as §1
HEK293 cells (ECACC 85120602) were maintained in Dulbecco’s modified Eagle medium (Gibco) supplemented with 10% fetal bovine serum (Thermo Scientific), 2 mM L-glutamine, 100 U ml^−1 benzylpenicillin and 100 µg ml^−1 streptomycin at 37 °C in a humidified atmosphere (5% CO2 in air). HEK293 cells were seeded at 1.0 × 10^5 cells per well in poly-L-lysine coated 24-well plates. […]
(§4) Cell lysates were deproteinized by adding acetonitrile containing candesartan as the internal standard. The α-MG concentration was quantified via liquid chromatography–tandem mass spectrometry (LC–MS/MS) using the internal standard method.
(§5) Cellular protein content was determined using a bicinchoninic acid protein assay kit (Thermo Fisher Scientific). The uptake of α-MG was expressed as the ratio of concentration in the cells (in pmol per mg protein) to concentration in the medium (in pmol μl^−1); this is known as the cell-to-medium ratio (in μl per mg protein).
(§6) In the inhibition study, the cell-to-medium ratio of cells transfected with the empty vector was used as the background. The specific α-MG uptake was calculated by subtracting this background from the total cell-to-medium ratio and normalized to the uptake achieved without the inhibitor. IC50 was calculated via nonlinear regression using GraphPad Prism 8.4.3.
as §3

hSGLT2 F453A [4] = biological target: T2, hSGLT2 F453A; test: α-MG uptake in HEK293 cells, F453A mutant; type: cell-based; design: expressed in transfected cells
Source text: as §1
HEK293 cells (ECACC 85120602) were maintained in Dulbecco’s modified Eagle medium (Gibco) supplemented with 10% fetal bovine serum (Thermo Scientific), 2 mM L-glutamine, 100 U ml^−1 benzylpenicillin and 100 µg ml^−1 streptomycin at 37 °C in a humidified atmosphere (5% CO2 in air). HEK293 cells were seeded at 1.0 × 10^5 cells per well in poly-L-lysine coated 24-well plates. The cells in each well were transiently transfected with 0.25 µg hMAP17 plasmid and 0.50 µg hSGLT2 plasmid using Lipofectamine 2000 (Life Technologies) and cultured for 48 h. […] After preincubation, uptake was initiated by replacing the preincubation buffer with extracellular fluid buffer containing 500 μM α-MG in the absence or presence of inhibitors. Uptake was completed by removing the uptake buffer and washing with ice-cold buffer three times, followed by solubilization in 1 N NaOH at room temperature.
as §4, §5, §6
The concentrations of the extract solution from the filter plate and of the cell lysate were quantified using a tandem mass spectrometry QTRAP6500 System (SCIEX) coupled with an ACQUITY UPLC system (Waters) using the internal standard method. Mobile phases A and B used 10 mM of ammonium bicarbonate and acetonitrile, respectively.

Cc1ccc([C@@H]2O[C@H](CO)[C@@H](O)[C@H](O)[C@H]2O)cc1Cc1ccc(-c2ccc(F)cc2)s1 [Canagliflozin]
Canagliflozin binding (% of WT) (hSGLT2 S74A [1]; 30 nM canagliflozin, replicates): 75.2559 % of WT and 78.5839 % of WT and 93.2268 % of WT | Canagliflozin binding (% of WT) (hSGLT2 F453A [2]): 4.952 % of WT and 11.6565 % of WT and 16.2768 % of WT

O=C(CCc1ccc(O)cc1)c1c(O)cc(O)cc1O[C@@H]1O[C@H](CO)[C@@H](O)[C@H](O)[C@H]1O [Phlorizin]
remaining activity at 0.003 µM (hSGLT2 S74A [3]; HEK293, read-out: α-MG uptake (% of control), Phlorizin 3 nM): 95.3% | remaining activity at 0.03 µM (hSGLT2 S74A [3]; HEK293, read-out: α-MG uptake (% of control), Phlorizin 30 nM): 80.6% | remaining activity at 0.1 µM (hSGLT2 S74A [3]; HEK293, read-out: α-MG uptake (% of control), Phlorizin 100 nM): 70.1% | Bmax1 (hSGLT2 S74A [1]; phlorizin, mean ± SEM n=3): 1.16 ± 0.07 pmol/mg-protein | α-MG uptake (% of control) (hSGLT2 F453A [4]; Phlorizin 0.3 nM): 102.6 % of control and 120.9 % of control and 125.2 % of control | α-MG uptake (% of control) (hSGLT2 F453A [4]; Phlorizin 1 nM): 103.4 % of control and 113.9 % of control and 124.6 % of control | α-MG uptake (% of control) (hSGLT2 F453A [4]; Phlorizin 3 nM): 96.6 % of control and 95.6 % of control and 68.3 % of control | α-MG uptake (% of control) (hSGLT2 F453A [4]; Phlorizin 10 nM): 133.1 % of control and 118.1 % of control and 89.5 % of control | α-MG uptake (% of control) (hSGLT2 F453A [4]; Phlorizin 30 nM): 123.6 % of control and 119.1 % of control and 101.2 % of control | α-MG uptake (% of control) (hSGLT2 F453A [4]; Phlorizin 100 nM): 126.1 % of control and 70.5 % of control and 71.8 % of control

CO[C@H]1O[C@H](CO)[C@@H](O)[C@H](O)[C@H]1O [α-MG, α-methyl-D-glucopyranoside]
α-MG uptake (hSGLT2 F453A [4]; Fig. 3h): 21.78 μL/mg-protein and 20.01 μL/mg-protein and 27.75 μL/mg-protein
